# Article PMC8727733, “Improvement of glycine biosynthesis from one‐carbon compounds and ammonia catalyzed by the glycine cleavage system in vitro” (Engineering in Life Sciences, 2021)
# Biological target: T1, glycine cleavage system (GCS), L protein with P, T and H proteins (Escherichia coli, UniProt P0A9P0)
# T1 construct: gene lpdA; printed WP records may differ from the MG1655 alleles; with Glycine dehydrogenase (decarboxylating); Aminomethyltransferase; Glycine cleavage system H protein
# T1 sequence (P0A9P0 2-474): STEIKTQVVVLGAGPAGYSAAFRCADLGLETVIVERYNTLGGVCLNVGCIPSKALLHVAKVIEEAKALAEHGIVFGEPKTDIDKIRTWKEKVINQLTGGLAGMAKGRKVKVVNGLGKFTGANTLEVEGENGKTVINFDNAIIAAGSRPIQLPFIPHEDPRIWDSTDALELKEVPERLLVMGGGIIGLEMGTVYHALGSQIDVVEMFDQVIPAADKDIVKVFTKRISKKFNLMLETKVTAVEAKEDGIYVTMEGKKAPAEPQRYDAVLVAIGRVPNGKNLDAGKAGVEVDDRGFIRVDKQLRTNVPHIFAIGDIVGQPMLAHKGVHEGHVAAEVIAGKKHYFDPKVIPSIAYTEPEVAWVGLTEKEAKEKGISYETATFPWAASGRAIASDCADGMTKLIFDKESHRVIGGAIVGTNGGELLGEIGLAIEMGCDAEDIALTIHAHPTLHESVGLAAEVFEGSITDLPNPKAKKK
# T1 sequence (P0A6T9 2-129 partner): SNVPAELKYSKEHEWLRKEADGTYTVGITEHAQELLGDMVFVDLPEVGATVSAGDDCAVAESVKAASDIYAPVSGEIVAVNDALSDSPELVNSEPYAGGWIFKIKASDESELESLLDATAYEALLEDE
# Assay: glycine-dependent NADH formation, spectrophotometric, reconstituted GCS
# Format: biochemical
# Conditions: 5 mM NAD+, 50 mM glycine, 0.5 mM THF, 20 mM DTT, 25 uM PLP, 50 mM Tris-HCl pH 7.5, 37 C; overall glycine cleavage
structure (smiles),measurement,value
NC(=O)c1ccc[n+]([C@@H]2O[C@H](COP(=O)(O)OP(=O)(O)OC[C@H]3O[C@@H](n4cnc5c(N)ncnc54)[C@H](O)[C@@H]3O)[C@@H](O)[C@H]2O)c1 [NAD+],"glycine-dependent NADH formation, spectrophotometric, reconstituted GCS",measuring glycine‐dependent NADH formation
